Measured values taken from patent US7718377B2, “Insulin resistance curative and method of screening the same” (Kyoto Pharmaceutical Industries, Ltd., priority 2003, dated 2010).
Each block holds one molecule with its values, some of them ahead of it.

How the values were obtained:
human PTP-1B (1-321) = biological target: T1, human PTP-1B (1-321) (Homo sapiens, UniProt P18031); assay: Determination of PTP-1B enzyme inhibitory activity (phosphopeptide substrate, malachite green); format: biochemical; details: each compound 100 μM; peptide substrate, 37° C., 10 min
T1 construct: ID No.2; made in house; host or cells: Escherichia coli BL21 DE3 (plasmid pET-hPTP1B (1-321), vector pET-11c)
T1 sequence (P18031 1-321): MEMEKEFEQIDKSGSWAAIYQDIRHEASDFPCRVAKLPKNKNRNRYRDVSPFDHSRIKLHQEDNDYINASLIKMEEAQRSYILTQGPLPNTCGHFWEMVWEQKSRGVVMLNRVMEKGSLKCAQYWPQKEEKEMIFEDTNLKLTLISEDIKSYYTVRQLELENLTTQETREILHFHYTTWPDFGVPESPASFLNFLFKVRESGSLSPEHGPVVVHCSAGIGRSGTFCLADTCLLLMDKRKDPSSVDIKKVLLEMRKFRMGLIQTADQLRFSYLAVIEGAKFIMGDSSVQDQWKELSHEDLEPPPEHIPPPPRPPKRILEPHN
Excerpt: As the substrates for PTP-1B enzyme reaction, synthetic peptides consisting of the following amino acid sequence: • Thr-Arg-Asp-Ile-Tyr (PO4)-Glu-Thr-Asp-Tyr (PO4)-Tyr (PO4)-Arg-Lys (SEQ; NO. 5), wherein 3 tyrosines had been all phosphorylated, were used (synthesis committed to Shimadzu Scientific Research Inc. (Chiyoda-ku, Tokyo)). [According to the amino acid numbers based on the report of Ullrich et al. (Nature, vol. 313, pages 756-761, 1985), this amino acid sequence corresponds to Nos. 1142-1153 of insulin receptor, and corresponds to Nos. 1169-1180 in the amino acid sequence of the insulin receptor precursor registered in Genbank No. X02160.]
This peptide substrate and a PTP-1B enzyme were reacted and the enzyme activity was determined by quantitation of inorganic phosphoric acid released from the substrate by the reaction. The decreased enzyme activity in the presence of a test compound during the enzyme reaction was taken as the enzyme inhibitory activity. Specifically, the following method was performed.
A peptide substrate (synthesis committed to Shimadzu Scientific Research Inc.) was dissolved in a buffer (20 mM imidazole (pH 7.0), 50 mM NaCl, 5 mM DTT and 2.5 mM EDTA) to 300 μM, and cryopreserved.
The PTP-1B solution obtained earlier was diluted with a buffer (20 mM imidazole (pH 7.0), 50 mM NaCl, 5 mM DTT, 2.5 mM EDTA, and 0.05% Nonidet P-40) to 200 ng/ml.
A 96 well microtiter plate [Costar 3695 (half area) Corning] was used and a buffer [39 μl, 20 mM imidazole (pH 7.0), 50 mM NaCl, 5 mM DTT, 2.5 mM EDTA], a PTP-1B enzyme solution (5 μl), and a solution (5 mM, 1 μl) of a test compound in dimethylsulfoxide (DMSO) were added to each well. As a control, solvent (DMSO, 1 μl) was added instead of the DMSO solution of test compound. After preincubation at 37° C. for about 10 min, a peptide substrate solution (300 μM, […]) was added and the mixture was incubated at 37° C. for 10 min.
For quantitation of released inorganic phosphoric acid, malachite green solution (90 μl, manufactured by BIOMOL Research Laboratories, Inc.) was added to each well, and the mixture was left standing at room temperature for about 10 min and the absorbance at 650 nm was measured with a microplate reader. Linearity was mostly observed between the absorbance and the phosphoric acid concentration generally within the absorbance range of from 0.05 to 0.6 (phosphoric acid from about […]) under these conditions.
The PTP-1B inhibitory activity of the test compound was obtained by the following calculation formula. Inhibitory activity (%)=[…]

[1] = biological target: T2, GAL4-PPARγ chimeric receptor (human PPARγ ligand binding site) (Homo sapiens, UniProt P37231); assay: Determination of PPARγ activation ability (GAL4-PPARγ luciferase reporter assay in HEK293 cells); format: cell-based; details: each compound 1 μM; amount of luminescence relative to control; value greater than 1 = activation ability
T2 construct: a GAL4-PPARγ chimeric receptor containing amino acid Nos. 1-147 of yeast transcription factor GAL4 on the amino terminal and Nos. 175-475; expressed in transfected cells; host or cells: HEK293 (plasmid pM-PPARγ co-transfected with reporter pFR-Luc)
Method: As a method for determining the ability of a compound to activate PPARγ (hereinafter PPARγ activation ability), a test by a reporter assay was performed with reference to the report of Kliewer et al. (Journal of Biological Chemistry, 1995, vol. 270(22), p. 12953-12956).
With reference to the report of Kliewer, a gene expressing a GAL4-PPARγ receptor, wherein human PPARγ ligand binding site (corresponding to about 300 amino acids on carboxy terminal) is bound with a DNA binding site (corresponding to 147 amino acids on amino terminal region) of yeast transcription factor GAL4, was prepared.
The plasmid pM-PPARγ obtained earlier, and plasmid pFR-Luc purchased from [sequence] CLONING SYSTEMS were each dissolved in desalted water to a concentration of 1 mg/1 ml.
A human fetal kidney-derived cell line HEK293 (American Type Culture Collection CRL-1573) was sown in a 75 cm^2 culture flask, and cultured in Dulbecco's Modified Eagle medium containing 10% fetal bovine serum (hereinafter a medium) under the conditions of 37° C., 5% CO2 until it reached nearly 80% confluent.
Using 7.5 μg of plasmid pM-PPARγ and 7.5 μg of plasmid pFR-Luc, both per flask, as well as a FuGENE6 transfection reagent (manufactured by Rosch Diagnostics) the plasmids were transfected to HEK293 cells and cultured overnight.
The next day, the cells were treated with trypsin and recovered. A 96 well plate coated with poly-L-lysine (IWAKI poly-L-lysine coated 96 well plate, manufactured by ASAHI TECHNOGLASS) was prepared, the cells were sown at about 50,000 cells/well, 90 μl, using the medium and cultured overnight.
The test compound was dissolved in DMSO at a concentration of 10 mM. This was diluted 1,000-fold with the medium, and 10 μl therefrom was added to the well in which cells were growing. The treatment concentration in the cell was 1 μM. After the addition, the cells were cultured overnight.
The next day, the medium was removed, and the cells were washed with phosphate buffered saline containing 1 mM magnesium and 1 mM calcium chloride. PicaGene LT FR manufactured by Wako Pure Chemical Industries, Ltd. was diluted 2-fold with the same saline and the solution was added to each well by 200 μl. After standing the mixture for about 1 hr, it was stirred and 180 μl thereof was taken from each well and placed in a white 96 well plate (OptiPlate 96, manufactured by Packard), applied to TopCount (manufactured by Packard) and the amount of luminescence of each well was measured for 6 seconds.
The PPARγ activation ability of the test compound was determined by the following calculation formula: PPARγ activation ability=(amount of luminescence [in the presence of each compound (1 μM)]}/[amount of luminescence (control)]

male Zucker Fatty rats = assay: Expression suppressive action on edema and the like: 2-week oral administration, insulin and blood cell parameters; format: in vivo, rat
Excerpt: For the test, male Zucker Fatty rats (6-week-old, Japan SLC) were used. During the acclimation period for 1 week and test period, feed (FR-2 (Funabashi Farm)) and water were freely given.
Blood was taken from the tail vain using a heparin-coated hematocrit tube and an EDTA-added hematocrit tube, and a part thereof was preserved as a whole blood and the rest was centrifuged and plasma was collected and subjected to the measurement of biochemical parameter (insulin). For insulin measurement, a rat Insulin RIA kit (US Linco) was used, and all the samples were collectively measured after the completion of administration. The whole blood sample was subjected to the measurement of blood cell parameters (erythrocyte concentration, hemoglobin concentration) using an automatic blood cell measurement apparatus (KX-21N, Sysmex Corporation).
At the beginning of the test, blood was taken from all the rats, and randomly grouped to make the parameters (body weight, erythrocyte, hemoglobin and the like) almost the same. […] The start of the administration was day 0, and the animals were fasted for about 16 hr from the evening of day 13. Blood was taken and measured for each parameter.

T2 sequence (P37231 with tags, fused parts or gaps): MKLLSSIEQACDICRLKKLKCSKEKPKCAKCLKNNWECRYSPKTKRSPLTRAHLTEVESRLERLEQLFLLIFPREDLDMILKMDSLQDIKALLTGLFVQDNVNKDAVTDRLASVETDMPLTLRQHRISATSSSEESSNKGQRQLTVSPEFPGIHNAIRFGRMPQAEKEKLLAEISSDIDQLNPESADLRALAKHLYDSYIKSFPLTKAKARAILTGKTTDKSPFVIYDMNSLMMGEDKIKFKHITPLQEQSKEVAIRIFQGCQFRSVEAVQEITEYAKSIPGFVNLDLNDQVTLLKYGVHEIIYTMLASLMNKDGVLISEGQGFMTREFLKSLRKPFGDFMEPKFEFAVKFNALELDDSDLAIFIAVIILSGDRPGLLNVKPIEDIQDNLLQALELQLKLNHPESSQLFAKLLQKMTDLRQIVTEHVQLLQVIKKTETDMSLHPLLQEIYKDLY

Compound: CC(C)(C)N.CCCCC=CC(=O)N1Cc2cc(OCCc3nc(/C=C/CC(C)C)oc3C)ccc2C[C@H]1C(=O)O (stereo in doubt) [Reference Example 24, 2-(2-heptenoyl)-7-{2-[5-methyl-2-(4-methyl-trans-1-penten-1-yl)oxazol-4-yl]ethoxy}-1,2,3,4-tetrahydroisoquinoline-(3S)-carboxylic acid tert-butylamine Salt]
- inhibitory activity (%) (human PTP-1B (1-321)): 92%
- PPARγ activation ability [1]: 9.4

Compound: CC(C)(C)N.CC=CC=CC(=O)N1Cc2cc(OCCc3nc(/C=C/CCCF)oc3C)ccc2C[C@H]1C(=O)O (stereo in doubt) [Reference Example 66, 7-{2-[2-(5-fluoro-trans-1-penten-1-yl)-5-methyloxazol-4-yl]ethoxy}-2-(2,4-hexadienoyl)-1,2,3,4-tetrahydroisoquinoline-(3S)-carboxylic Acid tert-butylamine Salt]
- inhibitory activity (%) (human PTP-1B (1-321)): 80%
- PPARγ activation ability [1]: 3.0

Compound: CC(C)(C)N.CC=CC=CC(=O)N1Cc2cc(OCCc3nc(/C=C/C4CCCCC4)oc3C)ccc2C[C@H]1C(=O)O (stereo in doubt) [Reference Example 40, 7-{2-[2-(trans-2-cyclohexylvinyl)-5-methyloxazol-4-yl]ethoxy}-2-(2,4-hexadienoyl)-1,2,3,4-tetrahydroisoquinoline-(3S)-carboxylic acid tert-butylamine Salt]
- inhibitory activity (%) (human PTP-1B (1-321)): 90%
- PPARγ activation ability [1]: 5.4

Compound: CC(C)(C)N.CC=CC=CC(=O)N1Cc2cc(OCCc3nc(/C=C/C4CCCC4)oc3C)ccc2C[C@H]1C(=O)O (stereo in doubt) [Reference Example 22, 7-{2-[2-(trans-2-cyclopentylvinyl)-5-methyloxazol-4-yl]ethoxy}-2-(2,4-hexadienoyl)-1,2,3,4-tetrahydroisoquinoline-(3S)-carboxylic acid tert-butylamine Salt]
- inhibitory activity (%) (human PTP-1B (1-321)): 95%
- PPARγ activation ability [1]: 5.1

Compound: CC(C)(C)N.CC=CC=CC(=O)N1Cc2cc(OCCc3nc(/C(C)=C/CCC)oc3C)ccc2C[C@H]1C(=O)O (stereo in doubt) [Reference Example 33, 2-(2,4-hexadienoyl)-7-{2-[5-methyl-2-(1-methyl-trans-1-penten-1-yl)oxazol-4-yl]ethoxy}-1,2,3,4-tetrahydroisoquinoline-(3S)-carboxylic acid tert-butylamine Salt]
- inhibitory activity (%) (human PTP-1B (1-321)): 92%
- PPARγ activation ability [1]: 6.5

Compound: CC(C)(C)N.CC=CC=CC(=O)N1Cc2cc(OCCc3nc(/C=C/CCCC)oc3C)ccc2C[C@H]1C(=O)O (stereo in doubt) [Reference Example 27, 2-(2,4-hexadienoyl)-7-{2-[2-(trans-1-hexen-1-yl)-5-methyloxazol-4-yl]ethoxy}-1,2,3,4-tetrahydroisoquinoline-(3S)-carboxylic acid tert-butylamine Salt]
- inhibitory activity (%) (human PTP-1B (1-321)): 88%
- PPARγ activation ability [1]: 5.9

Compound: CC(C)(C)N.CC=CC=CC(=O)N1Cc2cc(OCCc3coc(/C(C)=C/CCC)n3)ccc2C[C@H]1C(=O)O (stereo in doubt) [Reference Example 83, 2-(2,4-hexadienoyl)-7-{2-[2-(1-methyl-trans-1-penten-1-yl)oxazol-4-yl]ethoxy}-1,2,3,4-tetrahydroisoquinoline-(3S)-carboxylic Acid-tert-butylamine Salt]
- inhibitory activity (%) (human PTP-1B (1-321)): 82%
- PPARγ activation ability [1]: 3.1

- inhibition at 100 µM (human PTP-1B (1-321)): < 10%
Compound: CN(CCOc1ccc(CC2SC(=O)NC2=O)cc1)c1ccccn1 (stereo not drawn) [Rosiglitazone, reference compound]

Compound: CC(C)(C)N.CC=CC=CC(=O)N1Cc2cc(OCCc3nc(/C=C/CCC(C)C)oc3C)ccc2C[C@H]1C(=O)O (stereo in doubt) [Reference Example 30, 2-(2,4-hexadienoyl)-7-{2-[5-methyl-2-(5-methyl-trans-1-hexen-1-yl)oxazol-4-yl]ethoxy}-1,2,3,4-tetrahydroisoquinoline-(3S)-carboxylic acid tert-butylamine Salt]
- inhibitory activity (%) (human PTP-1B (1-321)): 96%
- PPARγ activation ability [1]: 6.2
- hemoglobin concentration (male Zucker Fatty rats; 30 mg/kg, po, once-daily, 2 consecutive weeks, FIG. 1): somewhat lower than those of the control group, but maintained at a remarkably high level as compared to the rosiglitazone administration group
- insulin lowering action (blood insulin concentration) (male Zucker Fatty rats; 30 mg/kg, po, once-daily, 2 consecutive weeks, FIG. 2): equivalent to that of the rosiglitazone
- erythrocyte concentration (male Zucker Fatty rats; 30 mg/kg, po, once-daily, 2 consecutive weeks, FIG. 3): somewhat lower than those of the control group, but maintained at a remarkably high level as compared to the rosiglitazone administration group
- blood dilution (decrease in the concentrations of hemoglobin and erythrocyte) (male Zucker Fatty rats; compared with rosiglitazone administration group): markedly suppressed
